Legend:
Experiment in all cases: relative viability (nuclei count vs DMSO), 5 days (fraction); higher = more cells survive
[1] = compound: CCc1cnn2c(NCc3ccc[n+]([O-])c3)cc(N3CCCC[C@H]3CCO)nc12 [Dinaciclib] + Cc1nc(Nc2ncc(C(=O)Nc3c(C)cccc3Cl)s2)cc(N2CCN(CCO)CC2)n1 [Dasatinib] (partner 0.075 µM)
Outline: (§1)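 A single step with final 0.05% Triton X-100, 1% formaldehyde and 1 ug/ml Hoechst fixed the cells and stained nuclei 5 days after treatment. Lung cancer cell lines in 1536-well plates had been treated by pin tool the day after seeding with one drug alone or a fixed anchor-drug dose plus five library-drug doses (not always all listed) in √10 steps, and nuclei were counted on 4× images. Relative viability is the ratio of nuclei in treated wells to nuclei in vehicle wells, taken as the median of duplicate plates.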

[2] = compound: CCc1cnn2c(NCc3ccc[n+]([O-])c3)cc(N3CCCC[C@H]3CCO)nc12 [Dinaciclib] + Cc1cc(Nc2cc(N3CCN(C)CC3)nc(Sc3ccc(NC(=O)C4CC4)cc3)n2)n[nH]1 [Tozasertib] (partner 0.1 µM)
Outline: as §1

[3] = compound: CCc1cnn2c(NCc3ccc[n+]([O-])c3)cc(N3CCCC[C@H]3CCO)nc12 [Dinaciclib] + CC1(C)CCC(c2ccc(Cl)cc2)=C(CN2CCN(c3ccc(C(=O)NS(=O)(=O)c4ccc(N[C@H](CCN5CCOCC5)CSc5ccccc5)c(S(=O)(=O)C(F)(F)F)c4)cc3)CC2)C1 [Navitoclax] (partner 0.5 µM)
Outline: as §1

[4] = compound: CCc1cnn2c(NCc3ccc[n+]([O-])c3)cc(N3CCCC[C@H]3CCO)nc12 [Dinaciclib] + Nc1ncn([C@H]2C[C@H](O)[C@@H](CO)O2)c(=O)n1 [Decitabine] (partner 2 µM)
Outline: as §1

[5] = compound: CCc1cnn2c(NCc3ccc[n+]([O-])c3)cc(N3CCCC[C@H]3CCO)nc12 [Dinaciclib] + COc1cc2c(Oc3ccc(NC(=O)C4(C(=O)Nc5ccc(F)cc5)CC4)cc3F)ccnc2cc1OCCCN1CCOCC1 [Foretinib] (partner 0.25 µM)
Outline: as §1

Cell Line: NCI-H1993
- relative viability ([1]; first compound 0.009487 µM): 0.637
- relative viability ([1]; first compound 0.03 µM): 0.509
- relative viability ([1]; first compound 0.09487 µM): 0.481
- relative viability ([1]; first compound 0.3 µM): 0.576
- relative viability ([2]; first compound 0.009487 µM): 0.505
- relative viability ([2]; first compound 0.03 µM): 0.623
- relative viability ([2]; first compound 0.09487 µM): 0.595
- relative viability ([2]; first compound 0.3 µM): 0.565
- relative viability ([3]; first compound 0.009487 µM): 0.799
- relative viability ([3]; first compound 0.03 µM): 0.499
- relative viability ([3]; first compound 0.3 µM): 0.562
- relative viability ([4]; first compound 0.009487 µM): 0.702
- relative viability ([4]; first compound 0.03 µM): 0.462
- relative viability ([4]; first compound 0.09487 µM): 0.445
- relative viability ([4]; first compound 0.3 µM): 0.406
- relative viability ([5]; first compound 0.009487 µM): 0.922
- relative viability ([5]; first compound 0.03 µM): 0.584
- relative viability ([5]; first compound 0.09487 µM): 0.65
- relative viability ([5]; first compound 0.3 µM): 0.544

Cell Line: NCI-H2009
- relative viability ([1]; first compound 0.009487 µM): 0.199
- relative viability ([1]; first compound 0.03 µM): 0.0887
- relative viability ([1]; first compound 0.09487 µM): 0.072
- relative viability ([1]; first compound 0.3 µM): 0.0636
- relative viability ([2]; first compound 0.009487 µM): 0.599
- relative viability ([2]; first compound 0.03 µM): 0.231
- relative viability ([2]; first compound 0.09487 µM): 0.112
- relative viability ([2]; first compound 0.3 µM): 0.106
- relative viability ([3]; first compound 0.009487 µM): 1.01
- relative viability ([3]; first compound 0.03 µM): 0.515
- relative viability ([3]; first compound 0.09487 µM): 0.0255
- relative viability ([3]; first compound 0.3 µM): 0.031
- relative viability ([4]; first compound 0.009487 µM): 0.41
- relative viability ([4]; first compound 0.03 µM): 0.294
- relative viability ([4]; first compound 0.09487 µM): 0.081
- relative viability ([4]; first compound 0.3 µM): 0.0958
- relative viability ([5]; first compound 0.009487 µM): 1.3
- relative viability ([5]; first compound 0.03 µM): 0.144
- relative viability ([5]; first compound 0.09487 µM): 0.103
- relative viability ([5]; first compound 0.3 µM): 0.0969

Cell Line: NCI-H2023
- relative viability ([1]; first compound 0.009487 µM): 0.393
- relative viability ([1]; first compound 0.03 µM): 0.0627
- relative viability ([1]; first compound 0.09487 µM): 0.0546
- relative viability ([1]; first compound 0.3 µM): 0.0553
- relative viability ([2]; first compound 0.009487 µM): 0.446
- relative viability ([2]; first compound 0.03 µM): 0.0768
- relative viability ([2]; first compound 0.09487 µM): 0.0628
- relative viability ([2]; first compound 0.3 µM): 0.0577
- relative viability ([3]; first compound 0.009487 µM): 0.929
- relative viability ([3]; first compound 0.03 µM): 0.0702
- relative viability ([3]; first compound 0.09487 µM): 0.0635
- relative viability ([3]; first compound 0.3 µM): 0.0619
- relative viability ([4]; first compound 0.009487 µM): 0.157
- relative viability ([4]; first compound 0.03 µM): 0.0607
- relative viability ([4]; first compound 0.09487 µM): 0.0544
- relative viability ([4]; first compound 0.3 µM): 0.0524
- relative viability ([5]; first compound 0.009487 µM): 0.948
- relative viability ([5]; first compound 0.03 µM): 0.0806
- relative viability ([5]; first compound 0.09487 µM): 0.0663
- relative viability ([5]; first compound 0.3 µM): 0.0474

Cell Line: NCI-H2085
- relative viability ([1]; first compound 0.009487 µM): 0.223
- relative viability ([1]; first compound 0.03 µM): 0.184
- relative viability ([1]; first compound 0.09487 µM): 0.218
- relative viability ([1]; first compound 0.3 µM): 0.229
- relative viability ([2]; first compound 0.009487 µM): 0.802
- relative viability ([2]; first compound 0.03 µM): 0.373
- relative viability ([2]; first compound 0.09487 µM): 0.3
- relative viability ([2]; first compound 0.3 µM): 0.308
- relative viability ([3]; first compound 0.009487 µM): 1.14
- relative viability ([3]; first compound 0.03 µM): 0.201
- relative viability ([3]; first compound 0.09487 µM): 0.154
- relative viability ([3]; first compound 0.3 µM): 0.172
- relative viability ([4]; first compound 0.009487 µM): 0.589
- relative viability ([4]; first compound 0.03 µM): 0.404
- relative viability ([4]; first compound 0.09487 µM): 0.217
- relative viability ([4]; first compound 0.3 µM): 0.236
- relative viability ([5]; first compound 0.009487 µM): 1.16
- relative viability ([5]; first compound 0.03 µM): 0.259
- relative viability ([5]; first compound 0.09487 µM): 0.194
- relative viability ([5]; first compound 0.3 µM): 0.241

Cell Line: NCI-H2087
- relative viability ([1]; first compound 0.009487 µM): 0.808
- relative viability ([1]; first compound 0.03 µM): 0.0939
- relative viability ([1]; first compound 0.09487 µM): 0.0743
- relative viability ([1]; first compound 0.3 µM): 0.0752
- relative viability ([2]; first compound 0.009487 µM): 0.222
- relative viability ([2]; first compound 0.03 µM): 0.0979
- relative viability ([2]; first compound 0.09487 µM): 0.0821
- relative viability ([2]; first compound 0.3 µM): 0.0868
- relative viability ([3]; first compound 0.009487 µM): 0.729
- relative viability ([3]; first compound 0.03 µM): 0.0652
- relative viability ([3]; first compound 0.09487 µM): 0.0695
- relative viability ([3]; first compound 0.3 µM): 0.0583
- relative viability ([4]; first compound 0.009487 µM): 0.189
- relative viability ([4]; first compound 0.03 µM): 0.0863
- relative viability ([4]; first compound 0.09487 µM): 0.0711
- relative viability ([4]; first compound 0.3 µM): 0.0804
- relative viability ([5]; first compound 0.009487 µM): 0.93
- relative viability ([5]; first compound 0.03 µM): 0.118
- relative viability ([5]; first compound 0.09487 µM): 0.0913
- relative viability ([5]; first compound 0.3 µM): 0.106

Cell Line: NCI-H2126
- relative viability ([1]; first compound 0.009487 µM): 0.54
- relative viability ([1]; first compound 0.03 µM): 0.187
- relative viability ([1]; first compound 0.09487 µM): 0.212
- relative viability ([1]; first compound 0.3 µM): 0.187
- relative viability ([2]; first compound 0.009487 µM): 0.799
- relative viability ([2]; first compound 0.03 µM): 0.218
- relative viability ([2]; first compound 0.09487 µM): 0.222
- relative viability ([2]; first compound 0.3 µM): 0.19
- relative viability ([3]; first compound 0.009487 µM): 0.868
- relative viability ([3]; first compound 0.03 µM): 0.607
- relative viability ([3]; first compound 0.09487 µM): 0.221
- relative viability ([3]; first compound 0.3 µM): 0.197
- relative viability ([4]; first compound 0.009487 µM): 0.524
- relative viability ([4]; first compound 0.03 µM): 0.393
- relative viability ([4]; first compound 0.09487 µM): 0.187
- relative viability ([4]; first compound 0.3 µM): 0.176
- relative viability ([5]; first compound 0.009487 µM): 1.08
- relative viability ([5]; first compound 0.03 µM): 0.803
- relative viability ([5]; first compound 0.09487 µM): 0.194
- relative viability ([5]; first compound 0.3 µM): 0.312

Cell Line: NCI-H2170
- relative viability ([1]; first compound 0.009487 µM): 0.475
- relative viability ([1]; first compound 0.03 µM): 0.137
- relative viability ([1]; first compound 0.09487 µM): 0.123
- relative viability ([1]; first compound 0.3 µM): 0.13
- relative viability ([2]; first compound 0.009487 µM): 0.721
- relative viability ([2]; first compound 0.03 µM): 0.171
- relative viability ([2]; first compound 0.09487 µM): 0.144
- relative viability ([2]; first compound 0.3 µM): 0.143
- relative viability ([3]; first compound 0.009487 µM): 0.477
- relative viability ([3]; first compound 0.03 µM): 0.155
- relative viability ([3]; first compound 0.09487 µM): 0.139
- relative viability ([3]; first compound 0.3 µM): 0.19
- relative viability ([4]; first compound 0.009487 µM): 0.471
- relative viability ([4]; first compound 0.03 µM): 0.212
- relative viability ([4]; first compound 0.09487 µM): 0.141
- relative viability ([4]; first compound 0.3 µM): 0.146
- relative viability ([5]; first compound 0.009487 µM): 0.901
- relative viability ([5]; first compound 0.03 µM): 0.281
- relative viability ([5]; first compound 0.09487 µM): 0.189
- relative viability ([5]; first compound 0.3 µM): 0.194

Cell Line: NCI-H2347
- relative viability ([1]; first compound 0.009487 µM): 0.344
- relative viability ([1]; first compound 0.03 µM): 0.246
- relative viability ([1]; first compound 0.09487 µM): 0.173
- relative viability ([1]; first compound 0.3 µM): 0.171
- relative viability ([2]; first compound 0.009487 µM): 0.425
- relative viability ([2]; first compound 0.03 µM): 0.17
- relative viability ([2]; first compound 0.09487 µM): 0.138
- relative viability ([2]; first compound 0.3 µM): 0.174
- relative viability ([3]; first compound 0.009487 µM): 0.779
- relative viability ([3]; first compound 0.03 µM): 0.167
- relative viability ([3]; first compound 0.09487 µM): 0.143
- relative viability ([3]; first compound 0.3 µM): 0.143
- relative viability ([4]; first compound 0.009487 µM): 0.673
- relative viability ([4]; first compound 0.03 µM): 0.383
- relative viability ([4]; first compound 0.09487 µM): 0.212
- relative viability ([4]; first compound 0.3 µM): 0.232
- relative viability ([5]; first compound 0.009487 µM): 0.824
- relative viability ([5]; first compound 0.03 µM): 0.248
- relative viability ([5]; first compound 0.09487 µM): 0.298
- relative viability ([5]; first compound 0.3 µM): 0.261
